The source of these data is BindingDB's records for doi:10.1016/j.chembiol.2017.01.006 (Sanford Burnham Prebys Medical Discovery Institute, 2017).

By Ki is commonly meant a measure of affinity in units of concentration, obtained from inhibition or displacement. For orientation: Kd means the concentration at which binding is half-saturated.

The target in test [1] is T1, Ephrin type-A receptor 4 [29-209] (Homo sapiens, UniProt P54764).
T1 construct: 29-209
The experiment in a line: Fluorescence Polarization Assay. To be noted: pH 7.2; 25 °C. Here is the method:
For competitive binding assays, 1 mL of […] EphA4-LBD was pre-incubated with the tested compounds at various concentrations in 98 mL of PBS (pH 7.2) in 96-well black plates at roomtemperature for 10 min, after which 1 mL of 500 mMFITC-labeled EphA4 peptide was added to produce a final volume of […].

Test [2] deals with T1, Ephrin type-A receptor 4 [29-209]. The experiment in a line: Isothermal Titration Calorimetry (ITC). Particulars: pH 6.5; 27 °C. Here is the method: (§1) The purified EphA proteins (EphA4-LBD, EphA3-LBD, and EphA2-LBD) were dissolved in 50 mM potassium phosphate buffer (pH 6.5) containing 100 mM NaCl. Compound binding was detected at 27 °C by comparing either the 2D-[15N,1H]-HSQC or 2D-[13C,1H]-HSQC spectra of 50 mMEphA4-LBD in absence and presence of compounds at 50 mM. ITC were measured with Model ITC200 from Microcal/GE Life Sciences.

The target of test [3] is T2, Ephrin type-A receptor 3 [29-207] (Homo sapiens, UniProt P29320).
T2 construct: 29-207
T2 sequence (P29320 whole entry): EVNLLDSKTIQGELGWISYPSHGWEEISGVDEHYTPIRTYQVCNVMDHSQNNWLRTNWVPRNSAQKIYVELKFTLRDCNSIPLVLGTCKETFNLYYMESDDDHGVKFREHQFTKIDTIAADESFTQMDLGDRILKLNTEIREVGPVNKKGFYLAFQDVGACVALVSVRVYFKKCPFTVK
The experiment in a line: Isothermal Titration Calorimetry (ITC). To be noted: pH 6.5; 27 °C. Here is the method:
as §1
Background: Isothermal titration calorimetry measures the heat released or taken up as one component is titrated into another.

Where a SMILES comes first, the peptide text is derived from it. [ ]: non-standard residue; d: D form. Trp(5-OH) = N[C@@H](Cc1c[nH]c2ccc(O)cc12)C(=O)O; Phe(4-Cl) = N[C@@H](Cc1ccc(Cl)cc1)C(=O)O; 4Pal = N[C@@H](Cc1ccncc1)C(=O)O; Ava = NCCCCC(=O)O; GABA = NCCCC(=O)O A value given as a limit tells only on which side of the number the result lay.

T1 sequence (P54764 29-209): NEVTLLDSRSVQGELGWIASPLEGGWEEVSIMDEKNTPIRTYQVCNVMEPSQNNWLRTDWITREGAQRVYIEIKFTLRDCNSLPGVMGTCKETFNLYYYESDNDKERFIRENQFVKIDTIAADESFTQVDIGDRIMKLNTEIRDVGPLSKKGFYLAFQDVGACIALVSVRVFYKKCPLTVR

The compound `NCCC(=O)N[C@@H](Cc1c[nH]c2ccc(O)cc12)C(=O)N[C@@H](Cc1ccc(Cl)cc1)C(=O)N[C@@H](Cc1ccncc1)C(=O)N[C@H](Cc1ccncc1)C(N)=O` [120G1] registered a Ki in test [1] of 14000 nM. `CC(C)(N)C(C)(C)C(=O)N[C@@H](Cc1c[nH]c2ccc(O)cc12)C(=O)N[C@@H](Cc1ccc(Cl)cc1)C(=O)N[C@@H](Cc1ccncc1)C(=O)N[C@H](Cc1ccncc1)C(N)=O` [120G2]: the Ki in test [1] is above 100000 nM.

With `NCCCC(=O)N[C@@H](Cc1c[nH]c2ccc(O)cc12)C(=O)N[C@@H](Cc1ccc(Cl)cc1)C(=O)N[C@@H](Cc1ccncc1)C(=O)N[C@H](Cc1c[nH]c2ccccc12)C(N)=O` [120H10] (H-[GABA][Trp(5-OH)][Phe(4-Cl)][4Pal][dW]-NH2), the affinity in test [1] corresponds to a Ki of 960 nM. In test [1], `NCCCCC(=O)N[C@@H](Cc1c[nH]c2ccc(O)cc12)C(=O)N[C@@H](Cc1ccc(Cl)cc1)C(=O)N[C@@H](Cc1ccncc1)C(=O)N[C@H](Cc1c[nH]c2ccccc12)C(N)=O` [123B1] (H-[Ava][Trp(5-OH)][Phe(4-Cl)][4Pal][dW]-NH2) registered a Ki of 3040 nM.

As for `NCCCC(=O)N[C@@H](Cc1c[nH]c2ccc(O)cc12)C(=O)N[C@@H](Cc1ccc(Cl)cc1)C(=O)N[C@@H](Cc1ccncc1)C(=O)NCCc1c[nH]c2ccccc12` [123C2], the affinity in test [2], expressed as Kd, was 1100 nM. The affinity in test [1], expressed as Ki, was 1590 nM. For the compound `NCCCC(=O)N[C@@H](Cc1c[nH]c2ccc(O)cc12)C(=O)N[C@@H](Cc1ccc(Cl)cc1)C(=O)N[C@@H](Cc1ccncc1)C(=O)NCCc1c[nH]c2ccc(F)cc12` [123C3], the Ki in test [1] amounted to 2220 nM. For `COc1ccc2[nH]cc(CCNC(=O)[C@H](Cc3ccncc3)NC(=O)[C@H](Cc3ccc(Cl)cc3)NC(=O)[C@H](Cc3c[nH]c4ccc(O)cc34)NC(=O)CCCN)c2c1` [123C4], binding in test [3] was characterised by a dissociation constant (Kd) of 4550 nM. In test [2], `NCCCC(=O)N[C@@H](Cc1c[nH]c2ccc(O)cc12)C(=O)N[C@@H](Cc1ccc(Cl)cc1)C(=O)N[C@@H](Cc1ccncc1)C(=O)NCCc1c[nH]c2ccc(O)cc12` [123C5] returned a Kd of 2200 nM. The compound further gave a Ki in test [1] of 2570 nM. `NCCCC(=O)N[C@@H](Cc1c[nH]c2ccc(O)cc12)C(=O)N[C@@H](Cc1ccc(Cl)cc1)C(=O)N[C@@H](Cc1ccncc1)C(=O)NCCc1c[nH]c2ccc(Cl)cc12` [123C6] showed a Ki in test [1] of 3140 nM. As to `COc1ccc2c(CCNC(=O)[C@H](Cc3ccncc3)NC(=O)[C@H](Cc3ccc(Cl)cc3)NC(=O)[C@H](Cc3c[nH]c4ccc(O)cc34)NC(=O)CCCN)c[nH]c2c1` [123C7], binding in test [2] was characterised by a dissociation constant (Kd) of 540 nM. In test [1], this compound yielded a Ki of 1590 nM.

In turn, `NCCCC(=O)N[C@@H](Cc1c[nH]c2ccc(O)cc12)C(=O)N[C@@H](Cc1ccc(Cl)cc1)C(=O)N[C@@H](Cc1ccncc1)C(=O)NCCc1cccc2ccccc12` [123C12] had a Ki in test [1] of 7670 nM. In test [2], `NCCC(=O)N[C@@H](Cc1c[nH]c2ccc(O)cc12)C(=O)N[C@@H](Cc1ccc(Cl)cc1)C(=O)N[C@@H](Cc1ccncc1)C(=O)N[C@H](Cc1c[nH]c2ccccc12)C(N)=O` [EphA4-LBC inhibitor, Compound 22] registered a Kd of 1200 nM. Also, the affinity in test [1], expressed as Ki, was 2140 nM.
